What follows are compounds tested against T1, ATP-sensitive inward rectifier potassium channel 1 (Homo sapiens, UniProt P48048) (assay: Inhibition of human Kir1.1 expressed in HEK293 cells by thallium flux assay).
T1 sequence (P48048 whole entry): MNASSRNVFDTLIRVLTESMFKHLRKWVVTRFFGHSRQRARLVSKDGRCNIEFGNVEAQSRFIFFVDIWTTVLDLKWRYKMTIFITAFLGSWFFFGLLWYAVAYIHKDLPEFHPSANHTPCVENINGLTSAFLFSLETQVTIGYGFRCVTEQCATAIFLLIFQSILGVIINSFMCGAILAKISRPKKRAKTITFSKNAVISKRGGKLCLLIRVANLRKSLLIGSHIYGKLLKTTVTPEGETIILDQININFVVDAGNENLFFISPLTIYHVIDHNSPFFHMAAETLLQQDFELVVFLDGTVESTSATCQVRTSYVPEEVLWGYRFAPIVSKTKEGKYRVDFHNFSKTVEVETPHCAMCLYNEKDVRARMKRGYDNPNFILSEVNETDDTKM
Assay type: cell-based
Work on Cc1nc(N2CCC3(CCN(C[C@H](O)c4ccc5c(c4C)COC5=O)CC3)C2)ccc1C#N yielded an IC50 of 14 nM. Compound Cc1cc(N2CCC3(CCN(C[C@H](O)c4ccc5c(c4C)COC5=O)CC3)C2)ncc1C#N has an IC50 of 17 nM. Cc1cc(C#N)cnc1N1CCC2(CCN(C[C@H](O)c3ccc4c(c3C)COC4=O)CC2)C1 gave an IC50 of 20 nM. Cc1c([C@@H](O)CN2CCC3(CC2)CCN(c2ccc(C#N)cc2)C3)ccc2c1COC2=O was tested, and the IC50 was 15 nM. Compound Cc1c([C@@H](N)CN2CCC3(CC2)CC(=O)N(c2ccc(C#N)cn2)C3)ccc2c1COC2=O has an IC50 of 14 nM. Work on Cc1c([C@@H](O)CN2CCC3(CC2)CCN(c2ncc(C#N)cn2)CC3)ccc2c1COC2=O yielded an IC50 of 14 nM. Cc1c([C@@H](O)CN2CCC3(CC2)CCN(c2cnc(C#N)cn2)CC3)ccc2c1COC2=O was tested, and the IC50 was 9 nM. Compound Cc1c([C@@H](O)CN2CCC3(CC2)CCN(c2ccc(C#N)nn2)CC3)ccc2c1COC2=O has an IC50 of 13 nM.
